Assay results reported in paper PMC6778101 (Nature Communications, 2019).
Where two headings read alike, the source gives them in different places. Ends that are not written are not given here. Peptide text beside a SMILES is read from it.

Assays:
[1] = test system: E.coli K-12 BW25113; format: cell-based, Escherichia coli; conditions: for MIC (freshly prepared AMP): plates inoculated immediately; for MIC (pre-incubated AMP): plates pre-incubated 72 hours before inoculation
Method: (§1) MICs were determined using a standard serial broth dilution technique. Briefly, 11-step serial dilutions were prepared in 96-well microtiter plates with three replicates per strain and antimicrobial compound. Each experiment was repeated at least twice. 5 × 10^5 cells/mL were inoculated into each well, and the plates were incubated at 30 °C in case of E. coli K-12 BW25113, and its antibiotic and AMP-adapted lines, or 37 °C in case of the other bacterial species. Plates were shaken at 300 r.p.m. during incubation for 24 and 18 h, respectively. Cell growth was monitored by measuring the optical density (OD600 value, Biotek Synergy 2 microplate reader was used for this purpose). […] Relative MIC was calculated as follows: MICrelative = MICevolved/MICcontrol.
Supplementary Table 7- Effect of incubation time on the minimum inhibitory concentration (MIC) of AMPs. We tested whether the prolonged incubation time can affect the MIC of AMPs. To test this, two sets of AMP containing MIC plates were prepared in parallel. The first set was immediately inoculated with E.coli K-12 BW25113, while the second set was pre-incubated 72 hours before inoculation with the […]
observed in the MIC between freshly prepared and pre-incubated plates. […]

[2] = test system: E. coli ATCC 25922, S. enterica LT2, K. pneumoniae ATCC 10031, A. baumannii ATCC 17978; assay: Laboratory evolution in pathogenic bacteria, statements for all four pathogens together; format: cell-based; conditions: all four pathogenic species
Excerpt: (§2) The tested pathogens initially sensitive to the AMPs and the antibiotics included Escherichia coli (ATCC® 25922™) (abbreviated as E. coli ATCC 25922), Salmonella enterica subsp. enterica serovar Typhimurium LT2 (abbreviated as S. enterica LT2), Klebsiella pneumoniae subsp. pneumoniae (Schroeter) Trevisan (ATCC® 10031™) (abbreviated as K. pneumoniae ATCC 10031) and Acinetobacter baumannii Bouvet and Grimont (ATCC® 17978™) (abbreviated as A. baumannii ATCC 17978).
(§3) The evolutionary protocol was designed to avoid population extinction and to ensure that populations with the highest level of resistance were propagated further. Starting with a subinhibitory drug concentration (Supplementary Data 8), resulting in ~50% growth inhibition, 10 parallel populations per drug were allowed to grow in Minimal Salts medium for 72 h and 300 r.p.m. E. coli K-12 BW25113 and E. coli mutD5 populations were incubated at 30 °C, while E. coli ATCC 25922, S. enterica LT2, K. pneumonia ATCC 10031, and A. baumannii ATCC 17978 were incubated at 37 °C. […] Prior to each transfer, cell growth was monitored by measuring the optical density at 600 nm (OD600 value, Biotek Synergy 2 microplate reader). Only populations with the highest drug concentration (and reaching OD600 > 0.2) were selected for further evolution. A chess-board layout was used on the plate to monitor potential cross-contamination events. […] E. coli mutD5 was adapted to TPII, also in 10 parallel evolving populations.
(§4) MICs were determined using a standard serial broth dilution technique. Briefly, 11-step serial dilutions were prepared in 96-well microtiter plates with three replicates per strain and antimicrobial compound. Each experiment was repeated at least twice. […] Cell growth was monitored by measuring the optical density (OD600 value, Biotek Synergy 2 microplate reader was used for this purpose). […] Relative MIC was calculated as follows: MICrelative = MICevolved/MICcontrol.

[3] = test system: E. coli ATCC 25922; assay: Laboratory evolution of resistance, MIC fold change of adapted lines; format: cell-based; conditions: Escherichia coli ATCC 25922; parallel line 1 of 10
Excerpt: as §2, §3, §4

[4] = test system: A. baumannii ATCC 17978; assay: as above; format: cell-based; conditions: Acinetobacter baumannii ATCC 17978; parallel line 1 of 10
Excerpt: as §2, §3, §4

[5] = test system: K. pneumoniae ATCC 10031; assay: as above; format: cell-based; conditions: Klebsiella pneumoniae ATCC 10031; parallel line 1 of 10
Excerpt: as §2, §3, §4

[6] = test system: Human red blood cells; conditions: previous work; cited from earlier work
Excerpt: Finally, our work identifies that TPII and CP1 are promising candidates for future therapeutic considerations, for the following reasons. They are active against a wide range of bacterial pathogens with a relatively high activity/toxicity (ATI) index. We note however, that existing data on the toxicity of the tachyplesin antimicrobial family are controversial[48],[59]–[61]. […] Furthermore, evolution of resistance against these AMPs is improbable in E. coli. We propos ...

[7] = test system: K. pneumoniae ATCC 10031; format: cell-based, Klebsiella pneumoniae; conditions: Klebsiella pneumoniae ATCC 10031; broth dilution, 37 °C, 18 h
Method: (§5) Unless otherwise indicated, we used E. coli K-12 BW25113 in all high-throughput experiments. To investigate the impact of mutation rate on evolution of AMP resistance, we initiated laboratory evolution with a mutator strain E. coli mutD5 that carries mutations in the dnaQ gene (L73W and A164V).
as §1

[8] = test system: Escherichia coli ATCC BAA 2469; format: cell-based; conditions: broth dilution, 37 °C, 18 h
Method: as §5, §1

[9] = test system: Salmonella enteritidis HNCMB 10092; format: cell-based; conditions: broth dilution, 37 °C, 18 h
Method: as §5, §1

[10] = test system: Escherichia coli NCTC 13351; format: cell-based; conditions: broth dilution, 37 °C, 18 h
Method: as §5, §1

[11] = test system: Shigella sonnei HNCMB 25021; format: cell-based; conditions: broth dilution, 37 °C, 18 h
Method: as §5, §1

[12] = test system: Staphylococcus aureus subsp. aureus ATCC 29213; format: cell-based; conditions: broth dilution, 37 °C, 18 h
Method: as §5, §1

[13] = test system: Shigella flexneri HNCMB 20018; format: cell-based; conditions: broth dilution, 37 °C, 18 h
Method: as §5, §1

[14] = test system: Methicillin-resistant Staphylococcus aureus subsp. aureus ATCC 43300; format: cell-based; conditions: broth dilution, 37 °C, 18 h
Method: as §5, §1

[15] = test system: Streptococcus pyogenes ATCC 19653; format: cell-based; conditions: broth dilution, 37 °C, 18 h
Method: as §5, §1

[16] = time allowed for bacterial growth 24 hours
[17] = time allowed for bacterial growth 48 hours
[18] = time allowed for bacterial growth 72 hours

Compound	MIC (freshly prepared AMP) [1, 16]	MIC (freshly prepared AMP) [1, 17]	MIC (freshly prepared AMP) [1, 18]	MIC (pre-incubated AMP) [1, 16]	MIC (pre-incubated AMP) [1, 17]	MIC (pre-incubated AMP) [1, 18]	resistance after laboratory evolution in pathogens (in words) [2]	MIC fold change following 20 transfers [3]	MIC fold change following 20 transfers [4]	MIC fold change following 20 transfers [5]	toxicity or haemolytic activity (in words) [6]	MIC [7]	MIC [8]	MIC [9]	MIC [10]	MIC [11]	MIC [12]	MIC [13]	MIC [14]	MIC [15]
CC[C@H](C)[C@@H]1NC(=O)CNC(=O)[C@H](CCCNC(=N)N)NC(=O)[C@H](Cc2ccc(O)cc2)NC(=O)[C@@H]2CSSC[C@H](NC1=O)C(=O)N[C@@H](Cc1ccc(O)cc1)C(=O)N[C@@H](CCCNC(=N)N)C(=O)N[C@@H](CCCCN)C(=O)N[C@H](C(=O)N[C@@H](CCCNC(=N)N)C(N)=O)CSSC[C@H](NC(=O)[C@H](Cc1c[nH]c3ccccc13)NC(=O)[C@@H](N)CCCNC(=N)N)C(=O)N[C@@H](Cc1ccccc1)C(=O)N[C@@H](CCCNC(=N)N)C(=O)N[C@@H](C(C)C)C(=O)N2 [TPII, tachyplesin II] (HELM PEPTIDE1{R.W.C.F.R.V.C.Y.R.G.I.C.Y.R.K.C.R.[am]}$PEPTIDE1,PEPTIDE1,3:R3-16:R3|PEPTIDE1,PEPTIDE1,7:R3-12:R3$$$V2.0; N-terminus and C-terminus assumed; bridges inferred)	5 µg/mL	5 µg/mL	5 µg/mL	6 µg/mL	6 µg/mL	6 µg/mL	very low levels	4.8 fold	4.3 fold	5.6 fold	–	–	–	–	–	–	–	–	–	–
SWLSKTAKKLENSAKKRISEGIAIAIQGGPR [CP1, Cecropin P1]	–	–	–	–	–	–	–	–	–	–	negligible toxicity or haemolytic activity	1.2 to 2.4 µM	1.2 µM	1.2 µM	0.6 to 1.2 µM	0.6 to 1.2 µM	> 9.6 µM	1.2 µM	> 9.6 µM	> 9.6 µM
